The experiment deals with HCV pseudoparticles (genotype 1a HCV E1 and E2 envelope, H77C isolate). In words: microbe, parasite or virus in culture. Type of experiment: cell-based. The conditions noted are these: Hepatitis C virus.
[1] abbreviates: Huh-7, 48 h, read-out: Activity (EC50 class), HCV pseudoparticle infection of Huh7 cells, luciferase 2 days after infection, EC50 expressed as class A/B.
Setting [2] is: Huh-7, read-out: Activity (EC50 class), HCV pseudoparticles (genotype 1a, H77C) in Huh7 cells, EC50 expressed as class A/B.
Where [3] appears, read: Huh-7, 48 h, read-out: Activity (EC50 class), HCV pseudoparticles, Huh7 cells, luciferase 2 days after infection, average of duplicates.
The mark [4] stands for this setting: Huh-7, 48 h, HCV pseudoparticle infection of Huh7 cells, luciferase 2 days after infection, average of duplicates.

The EC50 is the concentration that produces a half-maximal response.

Structures are written as SMILES. Where two headings read alike, the source gives them in different places.

`CC1(C)C(CNC(=O)C(=O)NCC[C@@H](NC(=O)c2ccc(Nc3nc(NC4(c5ccc(Cl)cc5)CC4)nc(OCC(F)(F)F)n3)cc2)C(=O)O)C1(C)C` [Compound 1449]: the EC50 under setting [1] was in the range of 0.01 to 10 nM.

Turning to `Cn1cnnc1-c1ccc(NC(=O)C(=O)NCCC(NC(=O)c2ccc(Nc3nc(NC4(c5ccc(Cl)cc5)CC4)nc(OCC(F)(F)F)n3)cc2)C(=O)O)cc1` (centres unmarked) [Compound 3538], the EC50 under setting [2] is 10 to 1000 nM.

On to `CC(C)(CNC(=O)C(=O)Nc1ccc(OC(F)(F)F)cc1)CNC(=O)c1ccc(Nc2nc(NC3(c4ccc(Cl)cc4)CC3)nc(OCC(F)(F)F)n2)cc1` [Compound 3145], for which the EC50 under setting [2] fell in the range of 0.01 to 10 nM.

For `CC(C)(CNC(=O)C(=O)Nc1ccc(Oc2ccccc2)cc1)CNC(=O)c1ccc(Nc2nc(NC3(c4ccc(Cl)cc4)CC3)nc(OCC(F)(F)F)n2)cc1` [Compound 3672], under setting [3], the EC50 fell in the range of 0.01 to 10 nM.

With `Cn1ccc(NC(=O)C(=O)NCC(C)(C)CNC(=O)c2ccc(Nc3nc(NC4(c5ccc(Cl)cc5)CC4)nc(OCC(F)(F)F)n3)cc2)n1` [Compound 3023], the EC50 under setting [2] was in the range of 0.01 to 10 nM.

In the case of `C=Cc1ccc(NC(=O)C(=O)NCC[C@H](NC(=O)c2ccc(Nc3nc(NC4(c5ccc(Cl)cc5)CC4)nc(OCC(F)(F)F)n3)cc2)C(=O)OC)cc1` [Compound 3129], the EC50 was 0.089 nM (Huh-7, 48 h, HCV pseudoparticles (genotype 1a, H77C) in Huh7 cells, average of duplicate, luciferase 2 days after infection) and 0.01 to 10 nM under setting [2].

Regarding `COc1ccc2sc(NC(=O)C(=O)NCC(C)(C)CNC(=O)c3ccc(Nc4nc(NC5(c6ccc(Cl)cc6)CC5)nc(OCC(F)(F)F)n4)cc3)nc2c1` [Compound 3806], the EC50 under setting [3] fell in the range of 0.01 to 10 nM.

Consider `COC(=O)[C@H](CCNC(=O)C(=O)Nc1ccc(F)c(F)c1)NC(=O)c1ccc(Nc2nc(NC3(c4ccc(Cl)cc4)CC3)nc(OCC(F)(F)F)n2)cc1` [Compound 1505], for which the EC50 under setting [1] fell in the range of 0.01 to 10 nM.

With `COC(=O)[C@H](CCNC(=O)C(=O)NC1CCC(O)CC1)NC(=O)c1ccc(Nc2nc(NC3(c4ccc(Cl)cc4)CC3)nc(OCC(F)(F)F)n2)cc1` (some centres unmarked) [Compound 1073], the EC50 under setting [1] lay in the range of 0.01 to 10 nM.

For the molecule `O=C(NCCc1ccncc1)C(=O)NCC[C@H](NC(=O)c1ccc(Nc2nc(NC3(c4ccc(Cl)cc4)CC3)nc(OCC(F)(F)F)n2)cc1)C(=O)O` [Compound 1332], the EC50 under setting [1] was in the range of 0.01 to 10 nM.

Regarding `COC(=O)[C@H](CNC(=O)C(=O)Nc1ccc(Cn2cncn2)cc1)NC(=O)c1ccc(Nc2nc(NC3(c4ccc(Cl)cc4)CC3)nc(OCC(F)(F)F)n2)cc1` [Compound 3182], under setting [2], the EC50 was 0.01 to 10 nM.

As to `COC(=O)[C@H](CCNC(=O)C(=O)N[C@H]1C[C@@H]2C[C@@H]([C@@H]1C)C2(C)C)NC(=O)c1ccc(Nc2nc(NC3(c4ccc(Cl)cc4)CC3)nc(OCC(F)(F)F)n2)cc1` [Compound 1110], the EC50 under setting [1] fell in the range of 0.01 to 10 nM.

Regarding `O=C(NCC[C@H](NC(=O)c1ccc(Nc2nc(NC3(c4ccc(Cl)cc4)CC3)nc(OCC(F)(F)F)n2)cc1)C(=O)O)C(=O)Nc1cccnc1` [Compound 1280], the EC50 under setting [1] was in the range of 0.01 to 10 nM.

On to `COC(=O)[C@H](CNC(=O)C(=O)NCc1cc(F)ccc1F)NC(=O)c1ccc(Nc2nc(NC3(c4ccc(Cl)cc4)CC3)nc(OCC(F)(F)F)n2)cc1` [Compound 1154], for which the EC50 was 1.07 nM under setting [4] and 0.01 to 10 nM under setting [1].

On to `O=C(Nc1ccccc1)C(=O)N(CCO)CCCNC(=O)c1ccc(Nc2nc(NC3(c4ccc(Cl)cc4)CC3)nc(OCC(F)(F)F)n2)cc1` [Compound 3508], for which the EC50 under setting [2] fell in the range of 0.01 to 10 nM.

With `O=C(NCCCNC(=O)c1ccc(Nc2nc(NC3(c4ccc(Cl)cc4)CC3)nc(OCC(F)(F)F)n2)cc1)C(=O)NCc1ccc(F)cc1` [Compound 3357], the EC50 under setting [2] is 0.01 to 10 nM.

For `CC(C)(CNC(=O)C(=O)Nc1nc2c(O)cccc2s1)CNC(=O)c1ccc(Nc2nc(NC3(c4ccc(Cl)cc4)CC3)nc(OCC(F)(F)F)n2)cc1` [Compound 3819], the EC50 under setting [3] fell in the range of 0.01 to 10 nM.

In the case of `O=C(NCCCCNC(=O)c1ccc(Nc2nc(NC3(c4ccc(Cl)cc4)CC3)nc(OCC(F)(F)F)n2)cc1)C(=O)Nc1ccccc1` [Compound 3403], the EC50 under setting [2] lay in the range of 0.01 to 10 nM.

For `O=C(NCC[C@H](NC(=O)c1ccc(Nc2nc(NC3(c4ccc(Cl)cc4)CC3)nc(OCC(F)(F)F)n2)cc1)C(=O)O)C(=O)Nc1ccc(-n2ccc(C(F)(F)F)n2)cc1` [Compound 3228], the EC50 under setting [2] is 0.01 to 10 nM.

For the molecule `COCc1ccc(NC(=O)C(=O)NCC[C@H](NC(=O)c2ccc(Nc3nc(NC4(c5ccc(Cl)cc5)CC4)nc(OCC(F)(F)F)n3)cc2)C(=O)O)cc1` [Compound 3543], the concentration giving a half-maximal response (EC50) under setting [2] is 0.01 to 10 nM.

For the molecule `CC(C)(CNC(=O)C(=O)Nc1cccc(C(=O)c2ccccc2)c1)CNC(=O)c1ccc(Nc2nc(NC3(c4ccc(Cl)cc4)CC3)nc(OCC(F)(F)F)n2)cc1` [Compound 3078], the EC50 under setting [2] lay within 0.01 to 10 nM.

Turning to `COc1cccc(NC(=O)C(=O)NC[C@H](NC(=O)c2ccc(Nc3nc(NC4(c5ccc(Cl)cc5)CC4)nc(OCC(F)(F)F)n3)cc2)C(=O)O)c1` [Compound 1358], under setting [1], the EC50 is 0.01 to 10 nM.

Take `COC(=O)[C@H](CNC(=O)C(=O)Nc1ccc(OC(F)(F)F)cc1)NC(=O)c1ccc(Nc2nc(NC3(c4ccc(Cl)cc4)CC3)nc(OCC(F)(F)F)n2)cc1` [Compound 3214]: the EC50 under setting [2] fell in the range of 0.01 to 10 nM.

For the molecule `COC(=O)[C@H](CNC(=O)C(=O)Nc1cccc(-c2nc(C)cs2)c1)NC(=O)c1ccc(Nc2nc(NC3(c4ccc(Cl)cc4)CC3)nc(OCC(F)(F)F)n2)cc1` [Compound 3725], the EC50 under setting [3] was 0.01 to 10 nM.

`C[C@H]1[C@@H](NC(=O)C(=O)NCC[C@H](NC(=O)c2ccc(Nc3nc(NC4(c5ccc(Cl)cc5)CC4)nc(OCC(F)(F)F)n3)cc2)C(=O)O)C[C@H]2C[C@@H]1C2(C)C` [Compound 1123]: under setting [1], the EC50 was 0.01 to 10 nM.

In the case of `O=C(NC[C@H](NC(=O)c1ccc(Nc2nc(NC3(c4ccc(Cl)cc4)CC3)nc(OCC(F)(F)F)n2)cc1)C(=O)O)C(=O)Nc1ccc(C(F)(F)F)cc1` [Compound 1363], under setting [1], the EC50 lay within 0.01 to 10 nM.

Take `COC(=O)[C@H](CNC(=O)C(=O)Nc1ccc(Cn2ccnc2)cc1)NC(=O)c1ccc(Nc2nc(NC3(c4ccc(Cl)cc4)CC3)nc(OCC(F)(F)F)n2)cc1` [Compound 3202]: the EC50 under setting [2] is 0.01 to 10 nM.

Consider `COC(=O)[C@H](CCNC(=O)C(=O)Nc1cncn1C)NC(=O)c1ccc(Nc2nc(NC3(c4ccc(Cl)cc4)CC3)nc(OCC(F)(F)F)n2)cc1` [Compound 1225], for which the EC50 under setting [1] lay within 0.01 to 10 nM.

Consider `CC(C)(CNC(=O)C(=O)Nc1ccc(CCC(=O)O)cc1)CNC(=O)c1ccc(Nc2nc(NC3(c4ccc(Cl)cc4)CC3)nc(OCC(F)(F)F)n2)cc1` [Compound 1483], for which the EC50 under setting [1] is 0.01 to 10 nM.

For `COC(=O)[C@H](CCNC(=O)C(=O)Nc1ccc(Cl)cc1)NC(=O)c1ccc(Nc2nc(NC3(c4ccc(Cl)cc4)CC3)nc(OCC(F)(F)F)n2)cc1` [Compound 1515], the EC50 under setting [1] is 0.01 to 10 nM.

`COC(=O)[C@H](CNC(=O)C(=O)Nc1ccc(CN2CCS(=O)(=O)CC2)cc1)NC(=O)c1ccc(Nc2nc(NC3(c4ccc(Cl)cc4)CC3)nc(OCC(F)(F)F)n2)cc1` [Compound 3194]: under setting [2], the EC50 was 0.01 to 10 nM.

For the molecule `COC(=O)[C@H](CNC(=O)C(=O)Nc1cccc(-c2cccnc2)c1)NC(=O)c1ccc(Nc2nc(NC3(c4ccc(Cl)cc4)CC3)nc(OCC(F)(F)F)n2)cc1` [Compound 3728], the EC50 under setting [3] was in the range of 0.01 to 10 nM.

In the case of `Cc1ccc(NC(=O)C(=O)NC(C)(C)CNC(=O)c2ccc(Nc3nc(NC4(c5ccc(Cl)cc5)CC4)nc(OCC(F)(F)F)n3)cc2)cc1Cl` [Compound 3441], under setting [2], the EC50 fell in the range of 0.01 to 10 nM.

Consider `COC(=O)[C@H](CCNC(=O)C(=O)Nc1cccc(-c2ccc(Cl)cc2)c1)NC(=O)c1ccc(Nc2nc(NC3(c4ccc(Cl)cc4)CC3)nc(OCC(F)(F)F)n2)cc1` [Compound 3599], for which, under setting [3], the half-maximal effective concentration (EC50) is 0.01 to 10 nM.

Take `O=C(NCCc1ccc(F)cc1)C(=O)NCC[C@H](NC(=O)c1ccc(Nc2nc(NC3(c4ccc(Cl)cc4)CC3)nc(OCC(F)(F)F)n2)cc1)C(=O)O` [Compound 1336]: the EC50 by setting is: under setting [4], 0.88 nM; under setting [1], 0.01 to 10 nM.

For `CC(C)(CNC(=O)C(N)=O)CNC(=O)c1ccc(Nc2nc(NC3(c4ccc(Cl)cc4)CC3)nc(OCC(F)(F)F)n2)cc1O` [Compound 3389], under setting [2], the EC50 was in the range of 0.01 to 10 nM.

On to `CN(C)C(=O)C(=O)NC[C@H](NC(=O)c1ccc(Nc2nc(NC3(c4ccc(Cl)cc4)CC3)nc(OCC(F)(F)F)n2)cc1)C(=O)OCCN1CCOCC1` [Compound 1022, (S)-2-morpholinoethyl 2-(4-(4-(1-(4-chlorophenyl)cyclopropylamino)-6-(2,2,2-trifluoroethoxy)-1,3,5-triazin-2-ylamino)benzamido)-3-(2-(dimethylamino)-2-oxoacetamido)propanoate], for which the EC50 by setting is: under setting [4], 7.11 nM; under setting [1], 0.01 to 10 nM.

On to `COC(=O)[C@H](CCNC(=O)C(=O)Nc1ccc(-c2ncco2)cc1)NC(=O)c1ccc(Nc2nc(NC3(c4ccc(Cl)cc4)CC3)nc(OCC(F)(F)F)n2)cc1` [Compound 3326], for which the concentration for a half-maximal effect (EC50) under setting [2] was in the range of 0.01 to 10 nM.

For `O=C(Nc1ccc(F)cc1)C(=O)N1CCCC(CNC(=O)c2ccc(Nc3nc(NC4(c5ccc(Cl)cc5)CC4)nc(OCC(F)(F)F)n3)cc2)C1` (centres unmarked) [Compound 3482], the EC50 under setting [2] was in the range of 0.01 to 10 nM.

Regarding `O=C(NCCC(NC(=O)c1ccc(Nc2nc(NC3(c4ccc(Cl)cc4)CC3)nc(OCC(F)(F)F)n2)cc1)C(=O)O)C(=O)Nc1ccc(OCCc2ncccn2)cc1` (centres unmarked) [Compound 3536], under setting [2], the EC50 was in the range of 0.01 to 10 nM.

Turning to `COc1ccc(CNC(=O)C(=O)NC[C@H](NC(=O)c2ccc(Nc3nc(NC4(c5ccc(Cl)cc5)CC4)nc(OCC(F)(F)F)n3)cc2)C(=O)O)cc1` [Compound 1167], the EC50 is, setting by setting: under setting [4], 1.32 nM; under setting [1], 0.01 to 10 nM.

Turning to `CNC(=O)C(=O)NCC[C@H](NC(=O)c1ccc(Nc2nc(NC3(c4ccc(Cl)cc4)CC3)nc(OCC(F)(F)F)n2)cc1)C(=O)O` [Compound 1014, (S)-2-(4-(4-(1-(4-chlorophenyl)cyclopropylamino)-6-(2,2,2-trifluoroethoxy)-1,3,5-triazin-2-ylamino)benzamido)-4-(2-(methylamino)-2-oxoacetamido)butanoic acid], the EC50 under setting [1] was in the range of 0.01 to 10 nM.
